According to patent US12469580B2, “In silico discovery of effective antimicrobials” (MASSACHUSETTS INSTITUTE OF TECHOLOGY, priority 2019, dated 2025):
≈ marks a conversion by molar mass, not a printed value. Entries after “also recorded” stand apart in the source; their conditions may differ.

Assays:
[1] = test system: C. difficile 630; test: C. difficile mouse infection model; format: in vivo, C57BL/6 mice; settings: for rate of C. difficile clearance from feces: halicin 15 mg/kg, metronidazole 50 mg/kg, vehicle 10% PEG 300
[2] = test system: E. coli strains harboring plasmid-borne antibiotic-resistance genes; format: cell-based
[3] = test system: E. coli; format: cell-based
[4] = test system: E. coli, S. aureus, Klebsiella pneumoniae, A. baumannii, and P. aeruginosa; test: ZINC15 compound validation, growth inhibition against a range of pathogens; format: cell-based; settings: LB media
[5] = test system: ciprofloxacin-resistant gyrA S83A mutant of BW25113; format: cell-based, E. coli
[6] = test system: E. coli in a metabolically repressed, antibiotic-tolerant state; test: Bacterial cell killing assay, E. coli in nutrient-free buffer (PBS); format: cell-based
[7] = test system: E. coli BW25113; test: Growth inhibition assay against E. coli; format: cell-based; settings: Escherichia coli, rich growth conditions, read-out: minimum inhibitory concentration (MIC)
[8] = test system: M. tuberculosis H37Rv; test: Growth inhibition of M. tuberculosis; format: cell-based; settings: Mycobacterium tuberculosis, 7H9 medium, stated as 1×MIC
[9] = test system: A. baumannii CDC 288; test: Growth inhibition of pan-resistant A. baumannii CDC 288 in vitro; format: cell-based; settings: Acinetobacter baumannii, CDC288, A. baumannii strain 288 (CDC)
[10] = test system: C. difficile strain 630; test: Growth inhibition of C. difficile 630 in vitro; format: cell-based; settings: Clostridioides difficile; C. difficile strain 630, in vitro
[11] = test system: ΔnfsAΔnfsB E. coli; format: cell-based; settings: deletion of nfsA and nfsB
[12] = test system: Carbapenem-resistant Enterobacteriaceae (CRE) clinical isolates; format: cell-based
[13] = test system: A. baumannii clinical isolates; test: Growth inhibition of multidrug-resistant clinical isolates, A. baumannii; format: cell-based; settings: 36 multidrug-resistant clinical isolates
[14] = test system: Pseudomonas aeruginosa clinical isolates; test: Growth inhibition of multidrug-resistant clinical isolates, P. aeruginosa; format: cell-based; settings: 36 multidrug-resistant clinical isolates
[15] = test system: E. coli persister cells; test: Killing of E. coli persister cells after ampicillin treatment; format: cell-based; settings: cells that remained after treatment with ampicillin
[16] = test system: M. tuberculosis; test: Bacterial cell killing assay, M. tuberculosis in 7H9 media; format: cell-based, Mycobacterium tuberculosis; settings: 16 μg/ml
[17] = test system: A. baumannii 288 cells; test: Bacterial cell killing assay, A. baumannii CDC 288 in PBS; format: cell-based; settings: metabolically repressed
[18] = test system: E. coli BW25113; test: Evolution of resistance (serial passage, spontaneous suppressor generation); format: cell-based; settings: 30 days serial passaging in liquid media; seven days on solid media
[19] = test system: S. aureus USA300; test: Growth inhibition of S. aureus in pH-adjusted media; format: cell-based, Staphylococcus aureus
[20] = test system: E. coli MC1061; test: DiSC3(5) assay, E. coli; format: cell-based; settings: early-log cells in buffer
[21] = test system: E. coli; test: Growth inhibition checkerboards of halicin in combination; format: cell-based
[22] = test system: daptomycin-resistant RN4220 strain (Δdsp1); format: cell-based, S. aureus
[23] = test system: A. baumannii CDC 288; test: A. baumannii mouse wound infection model; format: in vivo, Balb/c mice; settings: halicin 0.5% w/v topical, 25 hours post-infection
[24] = test system: E. coli; format: cell-based; remark: listed apart in the source
[25] = test system: MRSA; test: Activity against MRSA; format: cell-based, Staphylococcus aureus
[26] = test system: E. coli; test: Growth inhibition of E. coli in pH-adjusted or bicarbonate-supplemented media

Cc1ncc([N+](=O)[O-])n1CCO [Metronidazole, metronidazole, reference compound]
rate of C. difficile clearance from feces [1]: did not result in enhanced rates of clearance relative to vehicle controls

C[C@H]1CN(c2cc3c(cc2[N+](=O)[O-])c(=O)c(C(=O)O)cn3C2CC2)CCN1N=Nc1ccc(S(N)(=O)=O)cc1 [ZINC000100032716, 1-Cyclopropyl-7-[(3S)-3-methyl-4-[(4-sulfamoylphenyl)diazenyl]piperazin-1-yl]-6-nitro-4-oxoquinoline-3-carboxylic acid]
activity against E. coli harboring resistance determinants [2]: overcome an array of common resistance determinants | impact of plasmid-borne fluoroquinolone resistance on MIC [2]: only weakly impacted; also recorded: minor increase in MIC | bactericidal activity against E. coli [3]: bactericidal activity | spectrum of growth inhibitory activity [4]: potent broad-spectrum activity | impact of chromosomal resistance [5]: only weakly impacted | smaller change in MIC between gyrA mutant and wildtype E. coli relative to ciprofloxacin ([5]; gyrA S83A vs BW25113): 4 fold

CC1(C)S[C@@H]2[C@H](NC(=O)[C@H](N)c3ccccc3)C(=O)N2[C@H]1C(=O)O [ampicillin, reference compound]
bacterial cell killing, metabolically active E. coli [3]: efficacy against metabolically active cells | bactericidal activity against metabolically repressed, antibiotic-tolerant E. coli [6]: unable to eradicate E. coli

Nc1nnc(Sc2ncc([N+](=O)[O-])s2)s1 [halicin, 5-[(5-nitro-1,3-thiazol-2-yl)sulfanyl]-1,3,4-thiadiazol-2-amine]
MIC [7]: 2 µg/mL (≈ 7.65 µM) | MIC [8]: 16 µg/mL (≈ 61.2 µM) | MIC [9]: 1 µg/mL (≈ 3.83 µM) | MIC [10]: 0.5 µg/mL (≈ 1.91 µM) | change in MIC in the presence of resistance gene relative to antibiotic-susceptible parent strains [2]: No change in halicin MIC | change in MIC in nitrofurantoin-resistant E. coli [11]: did not change | growth inhibition of CRE clinical isolates [12]: strong growth inhibitory activity | growth inhibition of A. baumannii clinical isolates [13]: strong growth inhibitory activity | growth inhibition of P. aeruginosa clinical isolates [14]: lack of efficacy | bacterial cell killing, metabolically active E. coli [3]: bacterial cell killing was observed | bactericidal activity against metabolically repressed, antibiotic-tolerant E. coli [6]: retained bactericidal activity against tolerant cells | eradication of E. coli persister cells [15]: able to eradicate E. coli persister cells | bactericidal activity against M. tuberculosis [16]: rapidly bactericidal | killing of A. baumannii 288 in antibiotic-tolerant conditions [17]: able to sterilize A. baumannii 288 cells | evolution of resistant mutants [18]: not possible to isolate spontaneous suppressor mutants | potency as a function of media pH, Staphylococcus aureus [19]: halicin potency decreased as pH increased | DiSC3(5) fluorescence change, E. coli [20]: immediate decrease in DiSC3(5) fluorescence in a dose-dependent manner | interaction with kanamycin ([21]; checkerboard): synergized with kanamycin | interaction with tetracycline ([21]; checkerboard): antagonized the activity of tetracycline | interaction with Fe^3+ (FeCl3) ([21]; increasing concentrations of environmental Fe^3+): enhanced potency of halicin | cross-resistance in daptomycin-resistant S. aureus [22]: did not confer cross-resistance to halicin | bacterial load of wound tissue, one mouse [23]: ≈ 10^5 CFU/g | bacterial load of wound tissue, 5 of the 6 mice ([23]; below the limit of detection): less than 10^3 CFU/g | mice sterilized after 72 hours of treatment ([1]; 15 mg/kg gavage every 24 hours): 3 out of 4 | mice sterilized after 96 hours of treatment ([1]; 15 mg/kg gavage every 24 hours): 4 out of 4 | mice free of infection at 96 hours after treatment ([1]; 15 mg/kg, n=4): 100% | rate of C. difficile clearance from feces [1]: clearance from feces at a greater rate than vehicle or the antibiotic metronidazole | expression of cell motility genes [24]: rapid downregulation of genes involved in cell motility | expression of iron homeostasis genes ([24]; sub-lethal concentrations): upregulation of genes required for iron homeostasis | activity against MRSA [25]: potent activity | potency as a function of media pH, E. coli [26]: halicin potency decreased as pH increased | effect of sodium bicarbonate on growth inhibition ([26]; 25 mM sodium bicarbonate in growth medium): antagonized the action of halicin

polymyxin B [reference compound]
DiSC3(5) fluorescence change, E. coli [20]: corresponding increase in fluorescence
